This series in a line: activity coefficient (dimensionless); of the first substance listed, at infinite dilution; xn = mol fraction of the nth substance listed. As to conditions: 101.33 kPa, Liquid, Chromatography, x1 = 0.

± gives the expanded uncertainty stated by the source.

The values that follow come from the NIST ThermoML archive (doi:10.1016/j.jct.2018.02.014).

For `CCCC(=O)OC` [methyl butanoate] + CC[N+]1(C)CCOCC1.N#CN=C=[N-], the activity coefficient runs as follows: (318.15 K) 9.27 ± 0.63; (328.15 K) 9.53 ± 0.65; (338.15 K) 9.79 ± 0.67; (348.15 K) 10 ± 0.7; (358.15 K) 10.3 ± 0.7; (368.15 K) 10.5 ± 0.7.

For the compound `C=Cc1ccccc1` [styrene] + CC[N+]1(C)CCOCC1.N#CN=C=[N-], the activity coefficient is 6.38 ± 0.43 (318.15 K); 6.59 ± 0.45 (328.15 K); 6.81 ± 0.46 (338.15 K); 7.01 ± 0.48 (348.15 K); 7.22 ± 0.49 (358.15 K); 7.43 ± 0.51 (368.15 K).

Turning to `CCC[N+](=O)[O-]` [1-nitropropane] + CC[N+]1(C)CCOCC1.N#CN=C=[N-], the activity coefficient came to 2.29 ± 0.16 (318.15 K); 2.39 ± 0.16 (328.15 K); 2.49 ± 0.17 (338.15 K); 2.59 ± 0.18 (348.15 K); 2.68 ± 0.18 (358.15 K); 2.78 ± 0.19 (368.15 K).

On to `c1ccncc1` [pyridine] + CC[N+]1(C)CCOCC1.N#CN=C=[N-], for which the activity coefficient (318.15 K) turned out to be 1.74 ± 0.12; the activity coefficient (328.15 K) came to 1.81 ± 0.12; the activity coefficient (338.15 K) came to 1.88 ± 0.13; the activity coefficient (348.15 K) is 1.96 ± 0.13; the activity coefficient (358.15 K) was determined as 2.03 ± 0.14; the activity coefficient (368.15 K) was found to be 2.1 ± 0.14.

Take `C#CCCCCCC` [1-octyne] + CC[N+]1(C)CCOCC1.N#CN=C=[N-]: the activity coefficient runs as follows: (318.15 K) 84.2 ± 5.8; (328.15 K) 84.6 ± 5.8; (338.15 K) 84.9 ± 5.8; (348.15 K) 85.6 ± 5.9; (358.15 K) 86.1 ± 5.9; (368.15 K) 86.8 ± 5.9.

Consider `C=CCCCCCCCC` [1-decene] + CC[N+]1(C)CCOCC1.N#CN=C=[N-], for which the activity coefficient by setting is: (318.15 K) 1200 ± 83; (328.15 K) 1070 ± 74; (338.15 K) 960 ± 66; (348.15 K) 865 ± 60; (358.15 K) 785 ± 54; (368.15 K) 718 ± 49.

For `CCOCC` [diethyl ether] + CC[N+]1(C)CCOCC1.N#CN=C=[N-], the activity coefficient (328.15 K) was 28.5 ± 1.9; the activity coefficient (338.15 K) turned out to be 29.3 ± 2; the activity coefficient (348.15 K) was 30.1 ± 2.1; the activity coefficient (358.15 K) is 30.8 ± 2.1; the activity coefficient (368.15 K) turned out to be 31.6 ± 2.2.

With `C=C(C)c1ccccc1` [(1-methylethenyl)benzene] + CC[N+]1(C)CCOCC1.N#CN=C=[N-], the activity coefficient turned out to be 10.5 ± 0.7 (318.15 K); 11.1 ± 0.8 (328.15 K); 11.6 ± 0.8 (338.15 K); 12.1 ± 0.8 (348.15 K); 12.6 ± 0.9 (358.15 K); 13.1 ± 0.9 (368.15 K).

In the case of `c1ccccc1` [benzene] + CC[N+]1(C)CCOCC1.N#CN=C=[N-], the activity coefficient is, setting by setting: (318.15 K) 4.46 ± 0.3; (328.15 K) 4.62 ± 0.31; (338.15 K) 4.76 ± 0.32; (348.15 K) 4.91 ± 0.33; (358.15 K) 5.05 ± 0.34; (368.15 K) 5.2 ± 0.35.

As to `CCO` [ethanol] + CC[N+]1(C)CCOCC1.N#CN=C=[N-], the activity coefficient reads like this: (318.15 K) 1.2 ± 0.08; (328.15 K) 1.2 ± 0.08; (338.15 K) 1.21 ± 0.08; (348.15 K) 1.21 ± 0.08; (358.15 K) 1.22 ± 0.08; (368.15 K) 1.22 ± 0.08.

In the case of `Cc1ccccc1C` [1,2-dimethylbenzene] + CC[N+]1(C)CCOCC1.N#CN=C=[N-], the activity coefficient by setting is: (318.15 K) 10.8 ± 0.7; (328.15 K) 11.1 ± 0.8; (338.15 K) 11.4 ± 0.8; (348.15 K) 11.7 ± 0.8; (358.15 K) 12 ± 0.8; (368.15 K) 12.4 ± 0.8.

For the compound `C#CCCCCC` [1-heptyne] + CC[N+]1(C)CCOCC1.N#CN=C=[N-], the activity coefficient runs as follows: (318.15 K) 44.9 ± 3.1; (328.15 K) 46.3 ± 3.2; (338.15 K) 47.6 ± 3.3; (348.15 K) 49 ± 3.4; (358.15 K) 50.3 ± 3.4; (368.15 K) 51.6 ± 3.5.

For the compound `CCCCO` [butan-1-ol] + CC[N+]1(C)CCOCC1.N#CN=C=[N-], the activity coefficient by setting is: (318.15 K) 3.08 ± 0.21; (328.15 K) 3.02 ± 0.21; (338.15 K) 2.98 ± 0.2; (348.15 K) 2.94 ± 0.2; (358.15 K) 2.9 ± 0.2; (368.15 K) 2.86 ± 0.19.

With `CCC(=O)CC` [pentan-3-one] + CC[N+]1(C)CCOCC1.N#CN=C=[N-], the activity coefficient was determined as 5.23 ± 0.36 (318.15 K); 5.44 ± 0.37 (328.15 K); 5.64 ± 0.38 (338.15 K); 5.84 ± 0.4 (348.15 K); 6.03 ± 0.41 (358.15 K); 6.23 ± 0.42 (368.15 K).

For the compound `C1CCOC1` [tetrahydrofuran] + CC[N+]1(C)CCOCC1.N#CN=C=[N-], the activity coefficient by setting is: (318.15 K) 3.3 ± 0.22; (328.15 K) 3.44 ± 0.23; (338.15 K) 3.57 ± 0.24; (348.15 K) 3.7 ± 0.25; (358.15 K) 3.82 ± 0.26; (368.15 K) 3.95 ± 0.27.

On to `C=CCCCCC` [1-heptene] + CC[N+]1(C)CCOCC1.N#CN=C=[N-], for which the activity coefficient reads like this: (318.15 K) 288 ± 20; (328.15 K) 268 ± 18; (338.15 K) 251 ± 17; (348.15 K) 236 ± 16; (358.15 K) 222 ± 15; (368.15 K) 210 ± 14.

For `Cc1ccc(C)cc1` [1,4-dimethylbenzene] + CC[N+]1(C)CCOCC1.N#CN=C=[N-], the activity coefficient by setting is: (318.15 K) 13.4 ± 0.9; (328.15 K) 13.7 ± 0.9; (338.15 K) 14 ± 1; (348.15 K) 14.3 ± 1; (358.15 K) 14.6 ± 1; (368.15 K) 14.9 ± 1.

Take `CCC(=O)OC` [methyl propanoate] + CC[N+]1(C)CCOCC1.N#CN=C=[N-]: the activity coefficient is 5.12 ± 0.35 (318.15 K); 5.36 ± 0.37 (328.15 K); 5.59 ± 0.38 (338.15 K); 5.82 ± 0.4 (348.15 K); 6.04 ± 0.41 (358.15 K); 6.26 ± 0.43 (368.15 K).

For `CCCOCCC` [dipropyl ether] + CC[N+]1(C)CCOCC1.N#CN=C=[N-], the activity coefficient is 110 ± 8 (328.15 K); 112 ± 8 (338.15 K); 114 ± 8 (348.15 K); 116 ± 8 (358.15 K); 119 ± 8 (368.15 K).

Regarding `Cc1ccccc1` [toluene] + CC[N+]1(C)CCOCC1.N#CN=C=[N-], the activity coefficient was found to be 7.87 ± 0.54 (318.15 K); 8.1 ± 0.55 (328.15 K); 8.33 ± 0.57 (338.15 K); 8.56 ± 0.58 (348.15 K); 8.77 ± 0.6 (358.15 K); 8.99 ± 0.61 (368.15 K).

As for `CCCO` [propan-1-ol] + CC[N+]1(C)CCOCC1.N#CN=C=[N-], the activity coefficient reads like this: (318.15 K) 1.85 ± 0.12; (328.15 K) 1.85 ± 0.12; (338.15 K) 1.84 ± 0.12; (348.15 K) 1.84 ± 0.12; (358.15 K) 1.84 ± 0.12; (368.15 K) 1.83 ± 0.12.

For `CCCCCO` [pentan-1-ol] + CC[N+]1(C)CCOCC1.N#CN=C=[N-], the activity coefficient came to 4.78 ± 0.33 (318.15 K); 4.7 ± 0.32 (328.15 K); 4.63 ± 0.32 (338.15 K); 4.56 ± 0.31 (348.15 K); 4.49 ± 0.31 (358.15 K); 4.43 ± 0.3 (368.15 K).

Take `C1=CCCCC1` [cyclohexene] + CC[N+]1(C)CCOCC1.N#CN=C=[N-]: the activity coefficient stood at 50.7 ± 3.5 (318.15 K), 50 ± 3.4 (328.15 K) and 49.4 ± 3.4 (338.15 K).

As to `CCCc1ccccc1` [propylbenzene] + CC[N+]1(C)CCOCC1.N#CN=C=[N-], the activity coefficient runs as follows: (318.15 K) 29.2 ± 2; (328.15 K) 29.1 ± 2; (338.15 K) 29.1 ± 2; (348.15 K) 29.1 ± 2; (358.15 K) 29.2 ± 2; (368.15 K) 29.2 ± 2.
